Where two headings read alike, the source gives them in different places.
Experiments:
adrenal cortex [1] = assay: Adrenal damage; settings: for Adrenal damage: feeding; for Pathological findings in adrenals: without hydrocarbons
adrenal cortex [2] = settings: cited from earlier work; for Protection of adrenal against 7,12-DMBA: single feeding
lactic dehydrogenase = assay: Lactic dehydrogenase level in liver; type: in vivo, rat; settings: 3-MC 2.5 mg intravenous; Fig. 1
adrenal cortex [3] = assay: Induced protection of adrenal against 7,12-DMBA; type: in vivo, rat; settings: for Protection of adrenal after repeated doses: 15 mg fed daily for 5 days before 7,12-DMBA
[4] = Solubility of hydrocarbons in sesame oil; settings: room temperature; approximately
[5] = tested on: menadione reductase (EC 1.6.5.2); assay: Induction of menadione reductase in tissues; type: in vivo, rat; settings: for Hepatic menadione reductase: measured at 48 hours; for Induction of menadione reductase in liver: single feeding
[6] = tested on: deoxyribonucleic acid of adrenal; type: in vivo, rat; settings: Table VII; ethionine 25 mg i.p. at -24 hrs alone
adrenal cortex [7] = settings: far larger doses than of 7,12-DMBA required; cited from earlier work
[8] = 3-MC 2.5 mg i.v. on day 0 and day 1, tissues day 2, eight rats
[9] = rats bearing mammary cancers, fed 3-MC 10 mg, day 1, vs rats without 3-MC
[10] = polycyclic aromatic hydrocarbons

In the case of Cc1cccc2ccc3cc4ccccc4c(C)c3c12 [1,12-DMBA], the Adrenal damage (adrenal cortex [1]; 30 mg) is reported as “adrenal damage did not occur”.

For Nc1ccc2c(c1)Cc1ccccc1-2 [2-aminofluorene], the “Protection of adrenal against 7,12-DMBA” value (adrenal cortex [2]; aromatic amines) is listed as “protection of this sort was afforded”.

In the case of CC(C)(C(=O)c1cccnc1)c1cccnc1 [2-methyl-I, 2-b/s(3-pyr-idyl)-1-propanone], the “Prevention of adrenal damage from 7,12-DMBA” value (adrenal cortex [2]; preliminary treatment of rats) is given as “prevented adrenal damage”.

In the case of Nc1ccc2ccccc2c1 [2-naphthylamine], the “Protection of adrenal against 7,12-DMBA” value (adrenal cortex [2]; aromatic amines) is given as “protection of this sort was afforded”.

For Cc1ccc2cc3c(ccc4cc(C)ccc43)cc2c1 [3,9-Dimethylbenz[alanthracene], the Adrenal damage (adrenal cortex [1]; 30 mg) was “adrenal damage did not occur”.

For Cc1ccc2cc3c(ccc4ccccc43)c3c2c1CC3 [3-MC, 3-Methylcholanthrene], the “Prevention of adrenal injury by 7,12-DMBA” value (adrenal cortex [2]) is given as “prevented adrenal injury”, the “Change in concentration of lactic dehydrogenase in liver” value (lactic dehydrogenase) is given as “no significantchange” and the Adrenal protection (adrenal cortex [3]; 3-MC 0.5 mg on day -1 by feeding or injection in muscle or in vein) is given as “complete adrenal protection”. For the same compound, the “Duration of adrenal protection” value (adrenal cortex [3]; 3-MC 1 mg i.v., apoplexy when 7,12-DMBA injected on day 3) was 2 days, the “Duration of adrenal protection” value (adrenal cortex [3]; 3-MC 5 mg i.v., apoplexy when 7,12-DMBA injected on day 8) was 6 days and the Adrenal status (adrenal cortex [3]; 3-MC 2, 5, or 10 mg i.v. in the same emulsion with 7,12-DMBA 5 mg (simultaneous)) was “adrenal apoplexy in all of the animals”. For the same compound, the “Duration of adrenal protection” value (adrenal cortex [3]; 3-MC small dose (2 mg) i.v., Discussion) was 2 days, the Adrenal status (adrenal cortex [3]; Table IV, 3-MC 0.5 mg i.v. at -1 hr before 7,12-DMBA 5 mg i.v.) was “+” and the Adrenal status (adrenal cortex [3]; Table IV, 3-MC 0.5 mg i.v. at -2 hrs before 7,12-DMBA 5 mg i.v.) was “+”. For the same compound, the Adrenal status (adrenal cortex [3]; Table IV, 3-MC 0.5 mg i.v. at -3 hrs before 7,12-DMBA 5 mg i.v.) was 0, the Adrenal status (adrenal cortex [3]; Table IV, 3-MC 0.5 mg i.v. at -4 hrs before 7,12-DMBA 5 mg i.v.) was 0 and the Adrenal status (adrenal cortex [3]; Table IV, 3-MC 1 mg i.v. at -1 hr before 7,12-DMBA 5 mg i.v.) was “+”. For the same compound, the Adrenal status (adrenal cortex [3]; Table IV, 3-MC 1 mg i.v. at -2 hrs before 7,12-DMBA 5 mg i.v.) was “+”, the Adrenal status (adrenal cortex [3]; Table IV, 3-MC 1 mg i.v. at -3 hrs before 7,12-DMBA 5 mg i.v.) was 0 and the Adrenal status (adrenal cortex [3]; Table IV, 3-MC 1 mg i.v. at -4 hrs before 7,12-DMBA 5 mg i.v.) was 0. The Adrenal status (adrenal cortex [3]; Table IV, 3-MC 2 mg i.v. at -1 hr before 7,12-DMBA 5 mg i.v.) was “+”, the Adrenal status (adrenal cortex [3]; Table IV, 3-MC 2 mg i.v. at -2 hrs before 7,12-DMBA 5 mg i.v.) was “+” and the Adrenal status (adrenal cortex [3]; Table IV, 3-MC 2 mg i.v. at -3 hrs before 7,12-DMBA 5 mg i.v.) was 0. For the same compound, the Adrenal status (adrenal cortex [3]; Table IV, 3-MC 2 mg i.v. at -4 hrs before 7,12-DMBA 5 mg i.v.) was 0, the Adrenal status (adrenal cortex [3]; Table IV, 3-MC 2.5 mg i.v. at -1 hr before 7,12-DMBA 5 mg i.v.) was “+” and the Adrenal status (adrenal cortex [3]; Table IV, 3-MC 2.5 mg i.v. at -2 hrs before 7,12-DMBA 5 mg i.v.) was “+”. For the same compound, the Adrenal status (adrenal cortex [3]; Table IV, 3-MC 2.5 mg i.v. at -3 hrs before 7,12-DMBA 5 mg i.v.) was “+”, the Adrenal status (adrenal cortex [3]; Table IV, 3-MC 2.5 mg i.v. at -4 hrs before 7,12-DMBA 5 mg i.v.) was 0 and the Adrenal status (adrenal cortex [3]; Table IV, 3-MC 5 mg i.v. at -1 hr before 7,12-DMBA 5 mg i.v.) was “+”. For the same compound, the Adrenal status (adrenal cortex [3]; Table IV, 3-MC 5 mg i.v. at -2 hrs before 7,12-DMBA 5 mg i.v.) was “+”, the Adrenal status (adrenal cortex [3]; Table IV, 3-MC 5 mg i.v. at -3 hrs before 7,12-DMBA 5 mg i.v.) was “+” and the Adrenal status (adrenal cortex [3]; Table IV, 3-MC 5 mg i.v. at -4 hrs before 7,12-DMBA 5 mg i.v.) was “+”. For the same compound, the Adrenal status (adrenal cortex [3]; Table IV, 3-MC 10 mg i.v. at -1 hr before 7,12-DMBA 5 mg i.v.) was “+”, the Adrenal status (adrenal cortex [3]; Table IV, 3-MC 10 mg i.v. at -2 hrs before 7,12-DMBA 5 mg i.v.) was “+” and the Adrenal status (adrenal cortex [3]; Table IV, 3-MC 10 mg i.v. at -3 hrs before 7,12-DMBA 5 mg i.v.) was “+”. For the same compound, the Adrenal status (adrenal cortex [3]; Table IV, 3-MC 10 mg i.v. at -4 hrs before 7,12-DMBA 5 mg i.v.) was “+”, the “Solubility w/v in sesame oil” value [4] was ~1.25 per cent and the Hepatic menadione reductase ([5]; 3-MC 2.5 mg i.v. at 0 hours, lipide at 24 hours, Fig. 5) was 276 per cent of controls. For the same compound, the “Increase of menadione reductase in adrenal with respect to untreated controls” value [5, 8] was 159 per cent, the “Increase of menadione reductase in lung with respect to untreated controls” value [5, 8] was 164 per cent and the “Time of significant rise in menadione reductase in liver” value ([5]; 3-MC 2.5 mg i.v. only, Fig. 4) was 4 h. For the same compound, the “Time of first rise of menadione reductase in liver” value ([5]; 3-MC 2.5 mg intravenous, Fig. 1) was 3 h, the “Time of first increase of menadione reductase” value ([5]; 3-MC large dose (5 mg) i.v., Discussion) was 4 h and the “Increase of menadione reductase in liver” value [5, 9] was “+224 per cent”. The “Increase of menadione reductase in mammary cancer” value [5, 9] was “+275 per cent”, the “Increase of menadione reductase in mammary gland” value [5, 9] was “+214 per cent” and the Hepatic menadione reductase ([5]; sequence 3-MC 2.5 mg + 3-MC 2.5 mg i.v. at 0 and 24 hours) was 387 per cent of controls. The “Increase of menadione reductase concentration in liver” value ([5]; single feeding of 3-MC 0.5 mg, 24 hours, Fig. 2) was “twofold” and the “Increase of menadione reductase level in lung” value ([5]; single feeding of 3-MC 1 mg, 24 hours, Fig. 2) was 150 per cent.

In the case of Cc1c2ccccc2cc2c1cc(F)c1ccccc12 [5-Fluoro-7-methyl BaA], the Adrenals with hemorrhage (adrenal cortex [3]; Table III, dose 1 mg fed once day -1, 7,12-DMBA 5 mg i.v. day 0, adrenals day 3) is reported as 0/6.

In the case of Cc1cccc2cc3c(cc12)c(C)cc1ccccc13 [6,8-Dimethylbenz[a]anthracene], the Adrenal damage (adrenal cortex [1]; 30 mg) is reported as “adrenal damage did not occur”.

In the case of Nc1cc2c3ccccc3ccc2c2ccccc12 [6-Aminochrysene], the “Protection of adrenal against 7,12-DMBA” value (adrenal cortex [2]; aromatic amines) is listed as “protection of this sort was afforded”.

For c1ccc2cc3c(ccc4ccccc43)cc2c1 [Benz[a]anthracene, benz[a]anthracene], the “Protection of adrenal against 7,12-DMBA” value (adrenal cortex [2]; [10]) is given as “protection of this sort was afforded”.

For c1ccc2c(c1)cc1ccc3cccc4ccc2c1c34 [Benzo[a]pyrene, benzo[a]pyrene], the “Protection of adrenal against 7,12-DMBA” value (adrenal cortex [2]; [10]) is listed as “protection of this sort was afforded” and the “Induction of menadione reductase in liver” value ([5]; 24 hours) is listed as “induced synthesis of the enzyme”.

In the case of c1ccc2c(c1)ccc1c3ccccc3ccc21 [Chrysene], the “Induction of menadione reductase in liver” value ([5]; 24 hours) is reported as “induced a considerable in- crease”.

For c1cc2ccc3cccc4ccc(c1)c2c34 [Pyrene], the “Induction of menadione reductase in liver” value ([5]; 24 hours) was “failed to induce this enzyme”.

For c1ccc2cc3ccccc3cc2c1 [anthracene], the “Protection of adrenal against 7,12-DMBA” value (adrenal cortex [2]; [10]) is given as “protection of this sort was afforded”.

In the case of CCC1(CC)C(=O)NC(=O)NC1=O [barbital], the “Protection of adrenal after repeated doses” value (adrenal cortex [3]) is reported as “did not induce pro- tection”.

With CC(C)(O)C(Cl)(Cl)Cl [chloretone, 1,1,1-tricbloro-2-methyl-2-propanol] the “Rats with protection of adrenals” value (adrenal cortex [3]; 15 mg fed daily for 5 days, group of 20 rats) was 7.

With CCC1(C2=CCCCC2)C(=O)NC(=O)NC1=O [cyclobarbital, 5-(1-cycloohexanyl)-5-ethylbarbituric acid] the “Protection of adrenal after repeated doses” value (adrenal cortex [3]) was “did not induce pro- tection”.

In the case of CCSCC[C@H](N)C(=O)O [ethionine], the “Tritium content of adrenal” value [6] is reported as 0.122 ~clgm, the “Tritium content of adrenal, per cent of controls” value [6] is reported as 92 per cent and the “Pathological findings in adrenals” value (adrenal cortex [1]; injection of 25 to 75 mg) is reported as “No pathological findings”. For the same compound, the Adrenals at necropsy (adrenal cortex [3]; 3 doses of ethionine 25 mg at +1 minute, +4 hours, +8 hours after 3-MC 10 mg, 7,12-DMBA 5 mg) was “eliminated the protective effect of 3-MC”, the Adrenals at necropsy (adrenal cortex [3]; ethionine 25 mg 4 or 8 hours after 3-MC 2 mg, 7,12-DMBA 5 mg 24 hours later) was “yel- low adrenals” and the “Effect on 7,12-DMBA-produced adrenal apoplexy” value (adrenal cortex [3]; ethionine 25 mg or 50 mg 0.5 hours before 7,12-DMBA 5 mg, no protector) was “adrenal apoplexy was found at necropsy in all of the rats”. For the same compound, the Adrenals at necropsy (adrenal cortex [3]; single doses of ethionine 25 mg or 50 mg, 1 minute to 1 hour after 3-MC 10 mg, 7,12-DMBA 5 mg) was “yellow adrenals”, the “Elevation of menadione reductase in liver at 12 hours vs rats without ethionine” value ([5]; 3-MC 2.5 mg i.v. plus ethionine 25 mg i.p.) was “significantly lower” and the “Time elevation of menadione reductase in liver first detected” value ([5]; 3-MC 2.5 mg i.v. plus ethionine 25 mg i.p. just after, Fig. 4) was 8 h.

With CSCC[C@H](N)C(=O)O [methionine] the “Pathological findings in adrenals” value (adrenal cortex [1]; injection of 50 mg) was “No pathological findings” and the “Influence on aromatic protection against 7,12-DMBA” value (adrenal cortex [3]; methionine 50 mg as sole amino acid 1 hour before or 1 hour after 3-MC 2 mg) was “no influence on aromatic protection”.

In the case of Clc1ccc(C(c2ccccc2Cl)C(Cl)Cl)cc1 (centres unmarked) [o,p'-DDD, 2,2-bis(2-chlorophenyl,4-chlorophenyl)-l, 1-dichloroethane], the “Adrenal necrosis (character)” value (adrenal cortex [7]) is listed as “focal and patchy”.

In the case of c1ccc2c(c1)ccc1ccccc12 [phenanthrene], the “Protection of adrenal against 7,12-DMBA” value (adrenal cortex [2]; [10]) is given as “protection of this sort was afforded”.

In the case of CC12OOC(C)(c3ccccc31)c1c2ccc2ccccc12 (centres unmarked) [transannular peroxide of 7,12-DMBA], the Adrenal damage (adrenal cortex [1]; 50 mg) is reported as “did not cause injury to the adrenals”, the Adrenal protection (adrenal cortex [3]; feeding 10 mg) is reported as “complete adre- nal protection” and the “Animals with protection of adrenals” value (adrenal cortex [3]; single feeding of 2 mg, group of 5 rats) is reported as 3.
